Experimental data taken from ChEMBL document CHEMBL1201862, “PubChem BioAssay data set” (2004).
Calls of active or inactive are those of the source.

How the values were obtained:
HEK293 = experiment: cells; conditions: Homo sapiens;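 also: cells exposed to compound for 14 hours overnight before viability readout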
[1] = Luminescence-based counterscreen assay for KLF5 inhibitors: dose response cell-based high throughput screening assay to identify cytotoxic compounds using the IEC-6 intestinal epithelial cell line. [Related pubchem assays: 1700 (Primary screen.), 1834 (Confirmation screen.), 1858 (Summary AID.), 1905 (Counterscreen.)]; type: functional
[2] = inhibition of ADP-Glo detection reagents, dose response, artefact control for CDK5 inhibitor project, biochemical, luminescence, cherry-picked samples, set 2 (AID 504546); type: functional
[3] = cytotoxicity in HEK-293T cells, dose response, cytotoxicity control for TCR NF-kB inhibitor project, luminescence, T-cell screen hits (AID 489026); type: functional, cell-based;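 also: cells exposed to compound about 14 hours before the viability readout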
Vero = experiment: cells; type: functional; conditions: Chlorocebus sabaeus
[4] = molecular target: Scavenger receptor class B member 1 (Mus musculus, UniProt Q61009); experiment: inhibitors of SR-BI mediated HDL lipid uptake, dose response, ldlA[mSR-BI] cells, fluorescence, cherry pick (AID 493194); type: functional, cell-based;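 also: cellular uptake of fluorescent DiI-labeled HDL measured as cell fluorescence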
[5] = molecular target: Disintegrin and metalloproteinase domain-containing protein 17 (Homo sapiens, UniProt P78536); experiment: exosite inhibitors of ADAM17, dose response, biochemical (AID 743260)
[6] = ADAM10 protease inhibitors, dose response, selectivity assay for ADAM17 exosite inhibitor project, biochemical, FRET peptide substrate, recombinant human ADAM10 (AID 743259);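 also: ADAM10 enzyme cleaving a FRET peptide substrate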
Aspartyl aminopeptidase = Aspartyl aminopeptidase (Plasmodium falciparum 3D7, UniProt Q8I2J3)
Sequence of Aspartyl aminopeptidase (Q8I2J3 whole entry): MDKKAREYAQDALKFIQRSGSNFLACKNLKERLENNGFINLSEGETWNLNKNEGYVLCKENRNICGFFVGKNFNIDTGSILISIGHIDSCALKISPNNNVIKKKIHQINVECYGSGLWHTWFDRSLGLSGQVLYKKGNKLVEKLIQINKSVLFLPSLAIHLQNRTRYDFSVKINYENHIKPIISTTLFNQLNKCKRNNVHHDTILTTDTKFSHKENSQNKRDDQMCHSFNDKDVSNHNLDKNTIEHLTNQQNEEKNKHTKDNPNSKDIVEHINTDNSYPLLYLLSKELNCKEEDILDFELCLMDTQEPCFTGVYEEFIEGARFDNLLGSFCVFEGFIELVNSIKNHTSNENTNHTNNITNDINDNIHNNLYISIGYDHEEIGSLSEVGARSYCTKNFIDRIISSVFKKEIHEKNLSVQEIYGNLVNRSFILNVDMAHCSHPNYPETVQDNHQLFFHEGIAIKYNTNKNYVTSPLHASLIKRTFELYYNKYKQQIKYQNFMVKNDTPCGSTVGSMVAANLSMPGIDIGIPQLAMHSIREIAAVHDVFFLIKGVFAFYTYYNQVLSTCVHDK

Procathepsin L = Procathepsin L (Homo sapiens, UniProt P07711)
Sequence of Procathepsin L (P07711 whole entry): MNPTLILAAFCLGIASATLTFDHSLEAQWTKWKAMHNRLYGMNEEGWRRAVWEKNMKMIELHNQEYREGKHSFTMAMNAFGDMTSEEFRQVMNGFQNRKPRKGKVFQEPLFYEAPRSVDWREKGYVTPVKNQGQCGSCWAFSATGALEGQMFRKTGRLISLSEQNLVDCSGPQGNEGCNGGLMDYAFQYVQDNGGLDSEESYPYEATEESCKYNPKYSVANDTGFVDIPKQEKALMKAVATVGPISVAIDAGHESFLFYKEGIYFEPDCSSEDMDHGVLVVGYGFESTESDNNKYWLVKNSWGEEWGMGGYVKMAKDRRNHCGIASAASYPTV

HeLa = experiment: Cytotoxicity counterscreen assay for transcriptional activators of heat shock protein 70 (Hsp70). [Related pubchem assays: 1203, 1252 ]; type: functional; conditions: Homo sapiens;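 also: cells exposed to compound for 16 hours before readout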
[7] = molecular target: Eukaryotic translation initiation factor 4H (Homo sapiens, UniProt Q15056); experiment: human eIF4H binding inhibitors, primary screen, translation initiation inhibitor project, biochemical, uHTS, fluorescence polarization (AID 2012)
[8] = molecular target: Polyadenylate-binding protein 1 (Homo sapiens, UniProt P11940); experiment: PABP poly(A) RNA binding inhibitors, primary screen, biochemical, fluorescence polarization, uHTS (AID 2014)
Sequence of Polyadenylate-binding protein 1 (P11940 whole entry): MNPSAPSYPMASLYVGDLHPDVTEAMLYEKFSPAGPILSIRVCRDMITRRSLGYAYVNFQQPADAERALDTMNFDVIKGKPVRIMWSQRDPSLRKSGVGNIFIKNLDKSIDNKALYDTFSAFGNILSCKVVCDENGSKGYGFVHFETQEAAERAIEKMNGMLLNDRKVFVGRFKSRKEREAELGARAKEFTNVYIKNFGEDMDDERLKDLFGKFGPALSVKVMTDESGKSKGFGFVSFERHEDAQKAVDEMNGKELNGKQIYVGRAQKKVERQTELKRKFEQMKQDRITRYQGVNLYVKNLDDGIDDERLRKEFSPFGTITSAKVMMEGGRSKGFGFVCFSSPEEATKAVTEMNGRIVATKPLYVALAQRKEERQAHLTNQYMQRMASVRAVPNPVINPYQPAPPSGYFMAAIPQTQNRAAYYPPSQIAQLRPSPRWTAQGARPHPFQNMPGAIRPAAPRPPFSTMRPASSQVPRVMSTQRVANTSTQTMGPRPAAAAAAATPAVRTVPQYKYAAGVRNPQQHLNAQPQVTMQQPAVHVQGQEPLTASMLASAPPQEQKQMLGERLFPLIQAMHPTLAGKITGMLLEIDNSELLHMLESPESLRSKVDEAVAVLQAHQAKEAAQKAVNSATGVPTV

[9] = molecular target: T1, Alkaline phosphatase, tissue-nonspecific isozyme (Homo sapiens, UniProt P05186)
T1 sequence (P05186 whole entry): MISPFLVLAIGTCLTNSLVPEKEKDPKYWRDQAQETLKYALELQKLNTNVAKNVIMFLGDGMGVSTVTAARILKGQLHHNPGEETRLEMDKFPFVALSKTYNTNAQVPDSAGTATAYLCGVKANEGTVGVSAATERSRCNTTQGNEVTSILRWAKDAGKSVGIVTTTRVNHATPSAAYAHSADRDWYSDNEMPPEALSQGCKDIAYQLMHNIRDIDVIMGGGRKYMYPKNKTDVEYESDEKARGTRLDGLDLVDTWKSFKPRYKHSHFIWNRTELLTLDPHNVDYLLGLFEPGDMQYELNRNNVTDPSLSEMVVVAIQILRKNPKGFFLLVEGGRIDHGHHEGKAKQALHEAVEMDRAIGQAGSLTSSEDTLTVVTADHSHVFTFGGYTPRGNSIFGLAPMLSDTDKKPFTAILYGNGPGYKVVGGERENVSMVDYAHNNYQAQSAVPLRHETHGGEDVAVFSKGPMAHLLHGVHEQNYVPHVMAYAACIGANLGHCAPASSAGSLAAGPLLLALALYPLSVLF

Leucine aminopeptidase = molecular target: T2, Leucine aminopeptidase (Plasmodium falciparum 3D7, UniProt Q8IL11); experiment: P. falciparum M17LAP inhibitors, primary screen, biochemical, fluorogenic H-Leu-NHMec substrate, 1536-well (AID 1619); type: functional
T2 sequence (Q8IL11 whole entry): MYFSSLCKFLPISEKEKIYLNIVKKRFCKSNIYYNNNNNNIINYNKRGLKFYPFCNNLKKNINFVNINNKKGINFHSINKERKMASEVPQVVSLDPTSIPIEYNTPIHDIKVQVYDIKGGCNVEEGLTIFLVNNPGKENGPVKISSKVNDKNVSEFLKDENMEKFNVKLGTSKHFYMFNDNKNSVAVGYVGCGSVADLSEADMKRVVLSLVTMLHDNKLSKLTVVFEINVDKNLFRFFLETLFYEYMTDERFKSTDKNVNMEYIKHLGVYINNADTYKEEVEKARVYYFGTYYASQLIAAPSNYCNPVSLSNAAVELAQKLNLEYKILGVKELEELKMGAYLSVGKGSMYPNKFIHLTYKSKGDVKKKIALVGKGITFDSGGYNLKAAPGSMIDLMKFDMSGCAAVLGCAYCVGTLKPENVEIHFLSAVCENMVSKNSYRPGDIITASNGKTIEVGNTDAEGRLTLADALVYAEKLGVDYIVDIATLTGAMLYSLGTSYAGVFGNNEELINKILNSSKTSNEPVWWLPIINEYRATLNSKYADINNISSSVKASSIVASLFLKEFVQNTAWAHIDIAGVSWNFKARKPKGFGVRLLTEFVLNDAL

Beta-galactosidase = Beta-galactosidase (Escherichia coli, UniProt Q8VNN2); type: functional
Sequence of Beta-galactosidase (Q8VNN2 whole entry): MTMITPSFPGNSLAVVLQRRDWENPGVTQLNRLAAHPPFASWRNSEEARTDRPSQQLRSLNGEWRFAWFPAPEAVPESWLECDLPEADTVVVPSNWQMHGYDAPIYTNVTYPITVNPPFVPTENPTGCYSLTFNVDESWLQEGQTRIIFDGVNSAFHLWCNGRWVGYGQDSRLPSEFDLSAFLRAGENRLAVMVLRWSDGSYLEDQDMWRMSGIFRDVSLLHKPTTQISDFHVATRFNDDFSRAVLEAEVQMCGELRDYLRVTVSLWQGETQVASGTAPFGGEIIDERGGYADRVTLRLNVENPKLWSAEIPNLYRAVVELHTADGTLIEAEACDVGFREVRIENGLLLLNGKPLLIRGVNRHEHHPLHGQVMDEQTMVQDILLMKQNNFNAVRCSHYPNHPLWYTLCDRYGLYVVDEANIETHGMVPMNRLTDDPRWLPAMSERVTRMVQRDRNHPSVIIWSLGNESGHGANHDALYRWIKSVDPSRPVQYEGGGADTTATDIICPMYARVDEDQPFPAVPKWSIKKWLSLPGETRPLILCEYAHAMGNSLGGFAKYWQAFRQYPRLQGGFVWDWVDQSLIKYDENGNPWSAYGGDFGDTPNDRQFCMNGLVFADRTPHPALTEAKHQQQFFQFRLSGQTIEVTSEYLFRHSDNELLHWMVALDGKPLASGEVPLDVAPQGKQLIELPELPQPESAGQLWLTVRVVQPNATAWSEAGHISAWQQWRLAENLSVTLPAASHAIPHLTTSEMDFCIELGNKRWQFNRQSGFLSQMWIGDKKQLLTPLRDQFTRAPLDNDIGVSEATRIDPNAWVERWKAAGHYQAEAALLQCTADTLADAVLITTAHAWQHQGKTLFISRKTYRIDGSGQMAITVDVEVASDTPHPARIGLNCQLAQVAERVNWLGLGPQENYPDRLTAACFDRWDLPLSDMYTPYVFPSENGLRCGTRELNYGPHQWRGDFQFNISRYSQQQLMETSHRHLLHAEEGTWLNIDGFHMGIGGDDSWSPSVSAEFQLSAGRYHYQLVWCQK

Estrogen receptor = Estrogen receptor (Homo sapiens, UniProt P03372);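 also: potency for inhibiting coactivator peptide recruitment to the receptor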
Sequence of Estrogen receptor (P03372 whole entry): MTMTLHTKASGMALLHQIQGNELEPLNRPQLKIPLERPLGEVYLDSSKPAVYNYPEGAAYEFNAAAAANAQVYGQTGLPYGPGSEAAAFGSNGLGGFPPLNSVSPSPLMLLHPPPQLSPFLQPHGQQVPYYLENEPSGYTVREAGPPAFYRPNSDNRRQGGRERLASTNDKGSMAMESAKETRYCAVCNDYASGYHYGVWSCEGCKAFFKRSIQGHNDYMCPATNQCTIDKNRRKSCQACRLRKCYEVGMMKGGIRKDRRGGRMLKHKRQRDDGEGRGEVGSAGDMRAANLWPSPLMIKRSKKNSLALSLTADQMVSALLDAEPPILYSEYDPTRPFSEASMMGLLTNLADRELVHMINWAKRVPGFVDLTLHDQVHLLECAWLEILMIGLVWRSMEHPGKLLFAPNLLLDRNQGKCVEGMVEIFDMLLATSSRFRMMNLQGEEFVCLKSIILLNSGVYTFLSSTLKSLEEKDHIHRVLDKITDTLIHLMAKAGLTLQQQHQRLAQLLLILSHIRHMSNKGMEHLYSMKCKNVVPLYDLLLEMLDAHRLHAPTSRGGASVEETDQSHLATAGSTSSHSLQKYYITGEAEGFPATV

[10] = molecular target: T3, Microphthalmia-associated transcription factor (Homo sapiens, UniProt O75030); experiment: TRPM1 promoter luciferase signal decrease, dose response, MITF inhibitor project, cell-based, SK-MEL-5, cherry-picked, set 3 (AID 493073); type: functional
T3 sequence (O75030 whole entry): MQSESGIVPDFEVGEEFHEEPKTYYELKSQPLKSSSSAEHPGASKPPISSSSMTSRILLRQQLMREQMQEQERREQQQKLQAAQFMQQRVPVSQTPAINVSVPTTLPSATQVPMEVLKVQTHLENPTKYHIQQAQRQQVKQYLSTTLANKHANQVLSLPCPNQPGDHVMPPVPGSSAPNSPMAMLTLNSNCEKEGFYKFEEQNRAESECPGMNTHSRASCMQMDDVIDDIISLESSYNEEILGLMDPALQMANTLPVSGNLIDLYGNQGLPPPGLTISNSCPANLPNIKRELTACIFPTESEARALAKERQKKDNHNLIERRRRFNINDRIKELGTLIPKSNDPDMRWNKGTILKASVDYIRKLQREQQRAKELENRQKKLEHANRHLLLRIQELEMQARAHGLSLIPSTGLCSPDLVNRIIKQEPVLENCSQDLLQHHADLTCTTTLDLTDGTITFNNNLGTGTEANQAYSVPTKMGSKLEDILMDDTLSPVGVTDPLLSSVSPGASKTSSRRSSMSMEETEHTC

NS3 = NS3 (Hepatitis C virus, UniProt A3EZJ3); experiment: PubChem AID 2173; parameters: species or system Hepacivirus hominis
Sequence of NS3 (A3EZJ3 whole entry): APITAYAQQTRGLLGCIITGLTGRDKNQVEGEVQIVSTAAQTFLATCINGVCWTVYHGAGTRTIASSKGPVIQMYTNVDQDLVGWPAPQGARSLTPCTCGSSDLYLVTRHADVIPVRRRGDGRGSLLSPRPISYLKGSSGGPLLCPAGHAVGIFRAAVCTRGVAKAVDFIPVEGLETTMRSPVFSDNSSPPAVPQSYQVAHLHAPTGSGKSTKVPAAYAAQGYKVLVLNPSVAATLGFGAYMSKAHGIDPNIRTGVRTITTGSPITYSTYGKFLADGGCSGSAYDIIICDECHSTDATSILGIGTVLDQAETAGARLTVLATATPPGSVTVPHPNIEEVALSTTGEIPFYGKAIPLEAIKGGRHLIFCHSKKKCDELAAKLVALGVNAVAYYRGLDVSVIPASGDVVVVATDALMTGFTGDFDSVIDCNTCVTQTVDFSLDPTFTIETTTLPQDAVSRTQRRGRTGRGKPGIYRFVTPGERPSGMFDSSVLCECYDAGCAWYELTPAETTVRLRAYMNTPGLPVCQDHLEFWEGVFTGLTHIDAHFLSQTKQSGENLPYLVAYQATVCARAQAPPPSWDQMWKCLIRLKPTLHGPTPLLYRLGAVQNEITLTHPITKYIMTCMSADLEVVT

Insulin-degrading enzyme = molecular target: T4, Insulin-degrading enzyme (Homo sapiens, UniProt P14735); experiment: Dose Response: Fluorescence polarization-based cell-based high throughput dose response assay for inhibitors of insulin-degrading enzyme (IDE). [Related pubchem assays: 434962 (Primary screen (IDE inhibitors in singlicate)), 449730 (Counterscreen (Cytotoxicity in triplicate)), 435028 (Confirmation (IDE inhibitors in triplicate)), 434984 (Summary …; type: functional
T4 sequence (P14735 whole entry): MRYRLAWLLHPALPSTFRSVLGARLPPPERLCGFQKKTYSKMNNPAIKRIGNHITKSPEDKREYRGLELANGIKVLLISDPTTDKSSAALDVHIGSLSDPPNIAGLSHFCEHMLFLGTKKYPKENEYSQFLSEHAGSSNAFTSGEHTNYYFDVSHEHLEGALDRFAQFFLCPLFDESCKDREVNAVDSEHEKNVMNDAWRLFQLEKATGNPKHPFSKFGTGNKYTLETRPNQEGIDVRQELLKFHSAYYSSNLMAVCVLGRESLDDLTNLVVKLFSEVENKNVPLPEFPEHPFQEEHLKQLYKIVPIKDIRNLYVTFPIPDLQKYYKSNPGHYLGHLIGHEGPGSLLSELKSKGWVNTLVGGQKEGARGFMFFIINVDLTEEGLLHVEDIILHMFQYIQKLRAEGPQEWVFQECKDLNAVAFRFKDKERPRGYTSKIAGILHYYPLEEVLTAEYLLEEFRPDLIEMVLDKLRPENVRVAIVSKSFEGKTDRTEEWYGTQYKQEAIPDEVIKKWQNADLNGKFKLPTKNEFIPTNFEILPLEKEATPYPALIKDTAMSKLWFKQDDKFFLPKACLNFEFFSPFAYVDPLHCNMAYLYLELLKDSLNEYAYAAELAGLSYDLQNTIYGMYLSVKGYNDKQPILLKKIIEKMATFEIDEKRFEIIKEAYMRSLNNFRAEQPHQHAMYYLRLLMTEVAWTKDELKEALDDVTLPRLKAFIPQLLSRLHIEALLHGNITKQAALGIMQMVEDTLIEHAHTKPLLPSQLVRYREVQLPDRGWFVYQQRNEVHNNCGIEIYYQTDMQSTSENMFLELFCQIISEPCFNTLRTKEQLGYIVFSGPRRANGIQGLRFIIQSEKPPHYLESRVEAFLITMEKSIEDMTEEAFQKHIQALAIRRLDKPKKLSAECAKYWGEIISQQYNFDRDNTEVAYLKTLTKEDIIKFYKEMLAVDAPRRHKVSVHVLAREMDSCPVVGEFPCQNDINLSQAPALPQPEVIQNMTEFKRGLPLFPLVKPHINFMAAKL

[11] = enhancers of respiration in Yfh1-depleted yeast, dose response, Friedreich's ataxia, plus single-dose screen (AID 1465); type: functional;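 also: yeast depleted of Yfh1p frataxin homolog grown on glycerol needing respiration; WST-1 tetrazolium dye reduction as measure of cellular dehydrogenase metabolic activity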
[12] = Counterscreen for IDE inhibitors: Luminescence-based cell-based high throughput dose response assay to identify compounds that are cytotoxic to HEK cells. [Related pubchem assays: 434962 (Primary screen (IDE inhibitors in singlicate)), 449730 (Counterscreen (Cytotoxicity in triplicate)), 435028 (Confirmation (IDE inhibitors in triplicate)) …; type: functional; conditions: HEK293
[13] = molecular target: T5, Heat shock 70 kDa protein 1A (Homo sapiens, UniProt P0DMV8); experiment: Hsp70 inhibitors, biochemical, TR-FRET (AID 786)
T5 sequence (P0DMV8 whole entry): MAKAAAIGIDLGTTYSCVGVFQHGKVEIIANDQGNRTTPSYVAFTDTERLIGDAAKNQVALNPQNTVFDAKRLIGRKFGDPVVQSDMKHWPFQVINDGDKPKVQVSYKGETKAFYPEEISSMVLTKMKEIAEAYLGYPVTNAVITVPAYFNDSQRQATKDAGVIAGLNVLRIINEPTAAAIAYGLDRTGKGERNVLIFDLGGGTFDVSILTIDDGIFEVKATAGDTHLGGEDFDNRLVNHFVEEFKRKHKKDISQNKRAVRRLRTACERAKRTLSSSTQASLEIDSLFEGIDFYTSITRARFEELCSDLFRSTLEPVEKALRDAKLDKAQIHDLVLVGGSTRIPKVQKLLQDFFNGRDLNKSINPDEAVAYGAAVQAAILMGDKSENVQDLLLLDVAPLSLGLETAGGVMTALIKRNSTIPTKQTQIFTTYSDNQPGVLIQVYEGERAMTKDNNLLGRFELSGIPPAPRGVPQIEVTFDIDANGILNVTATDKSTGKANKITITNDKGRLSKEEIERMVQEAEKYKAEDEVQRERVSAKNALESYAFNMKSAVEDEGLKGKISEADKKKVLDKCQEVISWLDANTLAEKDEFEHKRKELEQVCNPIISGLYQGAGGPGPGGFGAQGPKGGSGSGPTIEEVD

[14] = molecular target: T5, Heat shock 70 kDa protein 1A; experiment: Hsp70 inhibitors, probe displacement, primary screen, biochemical, fluorescence polarization (AID 583)
Bcl-2-like protein 10 = molecular target: T6, Bcl-2-like protein 10 (Homo sapiens, UniProt Q9HD36); experiment: Biochemical TR3 FP assay of Bcl-B inhibitor potency, EC50 (AID 1243); type: functional
T6 sequence (Q9HD36 whole entry): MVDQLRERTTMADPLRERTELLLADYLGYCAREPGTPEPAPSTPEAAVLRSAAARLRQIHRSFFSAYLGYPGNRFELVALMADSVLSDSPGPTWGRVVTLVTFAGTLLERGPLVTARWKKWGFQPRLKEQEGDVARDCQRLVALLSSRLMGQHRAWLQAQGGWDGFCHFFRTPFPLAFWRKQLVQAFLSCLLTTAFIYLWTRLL

Structure (SMILES): Cc1ccc(C(=O)O/N=C(\N)c2ccccn2)c(C)c1
- IC50 (HEK293): > 20 µM (inactive)
- IC50 [1]: 13.1 µM (not active)
- AC50 [2]: 17.7 µM (active)
- IC50 [3]: > 80 µM (inactive)
- CC50 (Vero): 22.5 µM (active)

Structure (SMILES): N=C1/C(=C/c2cccn2CCOc2ccccc2)C(=O)N=C2SC=C(c3ccccc3)N12
- AC50 [4]: 16.9 µM (active)
- IC50 [5]: > 69.5 µM (inactive)
- IC50 [6]: > 69.5 µM (inactive)

Structure (SMILES): O=C(Nc1cc(N2CCOCC2)ncn1)NC1(C(F)(F)F)Oc2ccccc2O1
- IC50 (Aspartyl aminopeptidase): 2.7 µM (active)
- IC50 (Procathepsin L): > 59.6 µM (not active)

Structure (SMILES): CCOC(=O)C1(C/C(C)=N/NC(N)=O)CC(C)OC1=O (stereo not given)
- CC50 (HeLa): > 99 µM (not active)

Structure (SMILES): Cc1ccc(NC(=O)COC(=O)/C=C/c2ccco2)cc1S(=O)(=O)N(C)C
- IC50 [7]: 21.9 µM (active)
- IC50 [8]: 90.5 µM (active)

Structure (SMILES): O=C1/C(=C/c2cccs2)NC(=S)N1C1CC1
- EC50 [9]: > 100 µM (not active)
- IC50 (Leucine aminopeptidase): 6.44 µM (active)

Structure (SMILES): C=CCN1CC[C@]23c4c5ccc(O)c4OC2C(=O)CC[C@@]3(O)C1C5 (stereo not given in full)
- EC50 (Beta-galactosidase): > 31.5 µM (inactive)

Structure (SMILES): O=C(N/N=C/c1cccc(Oc2ccc([N+](=O)[O-])cc2[N+](=O)[O-])c1)c1cncc(Br)c1
- IC50 (Estrogen receptor): 27.9 µM (active)
- AC50 [10]: 243 µM (active)

Structure (SMILES): Nc1c(C(=O)Nc2ccccc2F)sc2nc(-c3ccco3)ccc12
- IC50 (NS3): > 36.3 µM (not active)

Structure (SMILES): Cc1ccccc1N1C(=O)NC(=O)/C(=C/c2ccc(N3CCOCC3)o2)C1=O
- IC50 (Insulin-degrading enzyme): 30.5 µM (not active)
- EC50 [11]: > 100 µM (active)
- IC50 [12]: > 55.6 µM (not active)

Structure (SMILES): CCOC(=O)C1CCN(C(=O)Cc2c(F)cccc2Cl)CC1
- IC50 [13]: > 100 µM (not active)
- IC50 [14]: > 100 µM (not active)

Structure (SMILES): Cc1cc(I)c2c(c1)C1C=CCC1C(C(=O)O)N2 (stereo not given)
- EC50 (Bcl-2-like protein 10): 20.7 µM (active)
